# According to ChEMBL document CHEMBL5727836, “Treatment of infectious diseases with glucose uptake inhibitors” (2020):
# pIC50: −log10 of the molar value.
# Assay: ATP Assay: HT1080 cells (as well as other cell types) were plated to confluency in 96-well plates. Cells were exposed to the combination of 10 μM Oligomycin (to block mitochondrial-derived ATP), and the glucose uptake inhibitor compounds for one-hour, after which glycolytically-dervied ATP was measured with the Cell Titer-Glo assay kit (Promega). Dose-response curves of the glucose uptake inhibitor compounds were used to determine the IC50 for GLUT activity.
# Conditions: HT-1080, 1 h
Compound,IC50,pIC50
CC(=O)N1Cc2nc(-c3cccc(OCC(=O)NC(C)C)c3)nc(Nc3ccc(-c4cn[nH]c4)cc3)c2C1,in the range around 175 nM,
O=C(COc1cccc(-c2nc(Nc3ccc(-c4cn[nH]c4)cc3)c3occc3n2)c1)NC1CCCC1,in the range around 375 nM,
O=C(COc1cccc(-c2nc(Nc3ccc(-c4cn[nH]c4)cc3)c3occc3n2)c1)NC1CCC1,in the range around 375 nM,
O=C(COc1cccc(-c2nc(Nc3ccc(-c4cn[nH]c4)cc3)c3ncsc3n2)c1)NC1CCC1,in the range around 375 nM,
CC(C)NC(=O)COc1cccc(-c2nc(Nc3ccc(-c4cn[nH]c4)cc3)c3ccncc3n2)c1,in the range around 55 nM,
CC(C)NC(=O)COc1cccc(-c2nc3c(c(Nc4ccc(-c5cn[nH]c5)cc4)n2)COCC3)c1,in the range around 55 nM,
Cn1cnc2c(Nc3ccc(-c4cn[nH]c4)cc3)nc(-c3cccc(OCC(=O)NC4CCC4)c3)nc21,in the range around 375 nM,
CC(C)CNC(=O)COc1cccc(-c2nc(Nc3ccc(-c4cn[nH]c4)cc3)c3ncsc3n2)c1,in the range around 375 nM,
Cn1ncc2c(Nc3ccc(-c4cn[nH]c4)cc3)nc(-c3cccc(OCC(=O)NC4CCCC4)c3)nc21,in the range around 175 nM,
CCC(C)NC(=O)COc1cccc(-c2nc3c(c(Nc4ccc(-c5cn[nH]c5)cc4)n2)COCC3)c1 (stereo not drawn),in the range around 55 nM,
Cn1ncc2c(Nc3ccc(-c4cn[nH]c4)cc3)nc(-c3cccc(OCC(=O)NC4CCC4)c3)nc21,in the range around 375 nM,
O=C(COc1cccc(-c2nc3c(c(Nc4ccc(-c5cn[nH]c5)cc4)n2)CSC3)c1)NC1CCC1,in the range around 175 nM,
CCC(C)(C)NC(=O)COc1cccc(-c2nc(Nc3ccc(-c4cn[nH]c4)cc3)c3sccc3n2)c1,in the range around 175 nM,
CCC(C)NC(=O)COc1cccc(-c2nc3c(c(Nc4ccc(-c5cn[nH]c5)cc4)n2)COC3)c1 (stereo not drawn),in the range around 55 nM,
CCC(CC)NC(=O)COc1cccc(-c2nc3c(c(Nc4ccc(-c5cn[nH]c5)cc4)n2)CN(C(C)=O)C3)c1,in the range around 55 nM,
CC(C)NC(=O)COc1cccc(-c2nc3c(c(Nc4ccc(-c5cn[nH]c5)cc4)n2)CSC3)c1,in the range around 375 nM,
CC(=O)N1CCc2nc(-c3cccc(OCC(=O)NC4CCCC4)c3)nc(Nc3ccc(-c4cn[nH]c4)cc3)c2C1,in the range around 55 nM,
O=C(COc1cccc(-c2nc(Nc3ccc(-c4cn[nH]c4)cc3)c3sccc3n2)c1)NC1CCC1,in the range around 175 nM,
CC(C)CNC(=O)COc1cccc(-c2nc(Nc3ccc(-c4cn[nH]c4)cc3)c3cnn(C)c3n2)c1,in the range around 175 nM,
CC(C)CNC(=O)COc1cccc(-c2nc3c(c(Nc4ccc(-c5cn[nH]c5)cc4)n2)COCC3)c1,in the range around 55 nM,
O=C(COc1cccc(-c2nc(Nc3ccc(-c4cn[nH]c4)cc3)c3ncsc3n2)c1)NC1CCCC1,in the range around 175 nM,
CC(C)NC(=O)COc1cccc(-c2nc(Nc3ccc(-c4cn[nH]c4)cc3)c3ncsc3n2)c1,in the range around 375 nM,
CCC(CC)NC(=O)COc1cccc(-c2nc3c(c(Nc4ccc(-c5cn[nH]c5)cc4)n2)COC3)c1,in the range around 55 nM,
CC(C)NC(=O)COc1cccc(-c2nc(Nc3ccc(-c4cn[nH]c4)cc3)c3cnn(C)c3n2)c1,in the range around 375 nM,

Compound,IC50,pIC50
O=C(COc1cccc(-c2nc3c(c(Nc4ccc(-c5cn[nH]c5)cc4)n2)COC3)c1)NC1CC(F)(F)C1,in the range around 175 nM,
CC(=O)N1Cc2nc(-c3cccc(OCC(=O)NC(C)(C)C)c3)nc(Nc3ccc(-c4cn[nH]c4)cc3)c2C1,in the range around 55 nM,
O=C(COc1cccc(-c2nc(Nc3ccc(-c4cn[nH]c4)cc3)c3ccncc3n2)c1)NC1CCCC1,in the range around 55 nM,
CC(C)NC(=O)COc1cccc(-c2nc(Nc3ccc(-c4cn[nH]c4)cc3)c3cnccc3n2)c1,in the range around 55 nM,
CC(C)NC(=O)COc1cccc(-c2nc(Nc3ccc4[nH]ncc4c3)c3sccc3n2)c1,in the range around 55 nM,
CC(=O)N1CCc2nc(-c3cccc(OCC(=O)NCC(C)C)c3)nc(Nc3ccc(-c4cn[nH]c4)cc3)c2C1,in the range around 55 nM,
O=C(COc1cccc(-c2nc3c(c(Nc4ccc(-c5cn[nH]c5)cc4)n2)COCC3)c1)NC1CCCC1,in the range around 55 nM,
CC(C)CNC(=O)COc1cccc(-c2nc(Nc3ccc(-c4cn[nH]c4)cc3)c3ncccc3n2)c1,in the range around 175 nM,
CC(C)NC(=O)COc1cccc(-c2nc3c(c(Nc4ccc(-c5cn[nH]c5)cc4)n2)CN(C(=O)C(C)C)CC3)c1,in the range around 55 nM,
CC(=O)N1CCc2nc(-c3cccc(OCC(=O)NC(C)(C)C)c3)nc(Nc3ccc(-c4cn[nH]c4)cc3)c2C1,in the range around 55 nM,
O=C(COc1cccc(-c2nc(Nc3ccc(-c4cn[nH]c4)cc3)c3sccc3n2)c1)NC1CC1,,6.12
O=C(COc1cccc(-c2nc(Nc3ccc(-c4cn[nH]c4)cc3)c3ccncc3n2)c1)NC1CCC1,in the range around 55 nM,
CC(C)(C)NC(=O)COc1cccc(-c2nc3c(c(Nc4ccc(-c5cn[nH]c5)cc4)n2)COC3)c1,in the range around 55 nM,
CC(C)(C)NC(=O)COc1cccc(-c2nc(Nc3ccc(-c4cn[nH]c4)cc3)c3cnccc3n2)c1,in the range around 55 nM,
CC(C)(C)NC(=O)COc1cccc(-c2nc(Nc3ccc(-c4cn[nH]c4)cc3)c3sccc3n2)c1,in the range around 175 nM,
CCC(CC)NC(=O)COc1cccc(-c2nc3c(c(Nc4ccc(-c5cn[nH]c5)cc4)n2)CN(C(C)=O)CC3)c1,in the range around 55 nM,
O=C(CN1CCOCC1)Nc1cccc(-c2nc(Nc3ccc(-c4cn[nH]c4)cc3)c3ccsc3n2)c1,in the range around 175 nM,
CC(C)(C)CNC(=O)COc1cccc(-c2nc3c(c(Nc4ccc(-c5cn[nH]c5)cc4)n2)COC3)c1,in the range around 55 nM,
O=C(COc1cccc(-c2nc3c(c(Nc4ccc(-c5cn[nH]c5)cc4)n2)CSC3)c1)NC1CCCC1,in the range around 175 nM,
CC(=O)N1CCc2nc(-c3cccc(OCC(=O)NC(C)C)c3)nc(Nc3ccc(-c4cn[nH]c4)cc3)c2C1,in the range around 175 nM,
O=C(COc1cccc(-c2nc(Nc3ccc(-c4cn[nH]c4)cc3)c3sccc3n2)c1)NC1CCCC1,in the range around 55 nM,
CC(C)(C)CNC(=O)COc1cccc(-c2nc3c(c(Nc4ccc(-c5cn[nH]c5)cc4)n2)COCC3)c1,in the range around 55 nM,
CC(C)CNC(=O)COc1cccc(-c2nc3c(c(Nc4ccc(-c5cn[nH]c5)cc4)n2)COC3)c1,in the range around 55 nM,
O=C(COc1cccc(-c2nc3c(c(Nc4ccc(-c5cn[nH]c5)cc4)n2)COCC3)c1)NC1CCC1,in the range around 55 nM,
